Results: patent publication US12336981B2, “Compounds and compositions for the inhibition of NAMPT” (Valo Health, Inc., priority 2010, dated 2025)
Like-named read-outs stand apart in the source and are kept apart here.

What was measured:
NAMPT = target: T1, NAMPT (Homo sapiens, UniProt P43490); assay: Biochemical inhibition assay: NAMPT enzymatic reaction, NMN quantified by mass spectrometry; conditions: read-out: Biochem IC50
T1 construct: His tag; host or cells: E. coli
Procedure, shortened: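 Inhibition of E. coli-expressed His-tagged human NAMPT, measured as NMN formation by mass spectrometry after a 30 min room-temperature reaction containing 1 μM NAM, 100 μM PRPP and 2.5 mM ATP.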

A2780 cells = assay: In-vitro cell proliferation assay (SRB), A2780 cells; type: cell-based; conditions: Homo sapiens, A2780, 72 h, A2780 cells, 72 hours, read-out: A2780 IC50
Procedure, shortened: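 Growth inhibition was derived from background-corrected SRB absorbance (570 nm), measured on cells fixed in 6% TCA after three days of compound treatment under 5% CO2 at 37° C.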

T1 sequence (P43490 whole entry): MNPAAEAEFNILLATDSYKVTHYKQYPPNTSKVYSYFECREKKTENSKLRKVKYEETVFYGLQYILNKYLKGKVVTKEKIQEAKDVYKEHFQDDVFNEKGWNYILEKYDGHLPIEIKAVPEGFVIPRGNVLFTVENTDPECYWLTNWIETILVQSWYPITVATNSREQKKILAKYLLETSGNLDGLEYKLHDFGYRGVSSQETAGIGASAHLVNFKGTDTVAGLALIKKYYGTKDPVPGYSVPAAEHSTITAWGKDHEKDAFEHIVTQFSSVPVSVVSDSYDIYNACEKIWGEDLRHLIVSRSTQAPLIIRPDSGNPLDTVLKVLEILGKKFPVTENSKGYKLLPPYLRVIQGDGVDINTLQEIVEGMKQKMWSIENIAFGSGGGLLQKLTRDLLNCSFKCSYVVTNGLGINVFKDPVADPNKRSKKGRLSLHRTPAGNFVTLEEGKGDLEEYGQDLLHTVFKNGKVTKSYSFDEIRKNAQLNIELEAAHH

| Structure (SMILES) | IC50 (NAMPT; NAMPT enzymatic assay) | IC50 (A2780 cells; SRB) | IC50 (NAMPT; NAMPT enzymatic reaction) | IC50 (A2780 cells; SRB assay) |
| --- | --- | --- | --- | --- |
| O=C(NCc1ccc(S(=O)(=O)c2cccc(C(F)(F)F)c2)cc1)c1ccc2ncsc2c1 | 6 nM | 548 nM | – | – |
| COc1cc(C)cc(OC)c1S(=O)(=O)c1ccc(CNC(=O)c2cc3cnccc3[nH]2)cc1 [N-({4-[(2,6-dimethoxy-4-methylbenzene)sulfonyl]phenyl}methyl)-1H-pyrrolo[3,2-c]pyridine-2-carboxamide] | – | – | 16 nM | 10 nM |
| CC(C)COc1cccc(S(=O)(=O)c2ccc(CNC(=O)c3cnc4[nH]ncc4c3)cc2)c1 | 28.5 nM | 34.2 nM | – | – |
| CCOc1cc(S(=O)(=O)c2ccc(CNC(=O)c3ccc4nccn4c3)cc2)ccc1F | – | 6 nM | 17 nM | – |
| CCCOc1ccc(S(=O)(=O)c2ccc(CNC(=O)c3ccc4nccn4c3)cc2)cc1F | – | 4.4 nM | 22.1 nM | – |
| CCS(=O)(=O)c1cccc(S(=O)(=O)c2ccc(CNC(=O)c3cc4ccncc4s3)cc2)c1 | 2.8 nM | 5.4 nM | – | – |
| CCOCc1ccc(S(=O)(=O)c2ccc(CNC(=O)c3cnc4nccn4c3)cc2)cc1 | 2.7 nM | 5.2 nM | – | – |
| O=C(NCc1ccc(S(=O)(=O)c2ccc(C(F)(F)F)cn2)cc1)c1cnc2nccn2c1 [N-({4-[5-(trifluoromethyl)pyridine-2-sulfonyl]phenyl}methyl)imidazo[1,2-a]pyrimidine-6-carboxamide] | 5.9 nM | 70.8 nM | – | – |
| O=C(NCc1ccc(S(=O)(=O)c2cc(C(F)(F)F)ccn2)cc1)c1cnc2[nH]ncc2c1 [N-({4-[4-(trifluoromethyl)pyridine-2-sulfonyl]phenyl}methyl)-1H-pyrazolo[3,4-b]pyridine-5-carboxamide] | 28.3 nM | 11.8 nM | – | – |
| O=C(NCc1ccc(S(=O)(=O)c2cccc3cccnc23)cc1)c1cnc2nccn2c1 [N-{[4-(quinoline-8-sulfonyl)phenyl]methyl}imidazo[1,2-a]pyrimidine-6-carboxamide] | 3 nM | 27.7 nM | – | – |
| O=C(NCc1ccc(S(=O)(=O)Nc2ccccc2CCO)cc1)c1cc2cnccc2[nH]1 [N-[(4-{[2-(2-hydroxyethyl)phenyl]sulfamoyl}phenyl)methyl]-1H-pyrrolo[3,2-c]pyridine-2-carboxamide] | 18.8 nM | 19.9 nM | – | – |
| O=C(NCc1ccc(S(=O)(=O)N2CCCCC2)cc1)c1cc2cccnc2s1 [N-{[4-(piperidine-1-sulfonyl)phenyl]methyl}thieno[2,3-b]pyridine-2-carboxamide] | – | – | 6150 nM | 14000 nM |
| Cc1ccc(Cl)cc1S(=O)(=O)c1ccc(CNC(=O)c2cnc3[nH]ncc3c2)cc1 [N-({4-[(5-chloro-2-methylbenzene)sulfonyl]phenyl}methyl)-1H-pyrazolo[3,4-b]pyridine-5-carboxamide] | – | 13.9 nM | 22.7 nM | – |
| Cc1ccc(S(=O)(=O)c2ccc(CNC(=O)c3cc4cnccc4[nH]3)cc2)cc1F [N-({4-[(3-fluoro-4-methylbenzene)sulfonyl]phenyl}methyl)-1H-pyrrolo[3,2-c]pyridine-2-carboxamide] | – | – | 8 nM | 6 nM |
| Cc1cccc(S(=O)(=O)c2ccc(CNC(=O)c3ccc4nccn4c3)cc2)c1 [N-({4-[(3-methylbenzene)sulfonyl]phenyl}methyl)imidazo[1,2-a]pyridine-6-carboxamide] | – | 6.39 nM | 8.12 nM | – |
| CCOc1ccc(Cl)cc1S(=O)(=O)c1ccc(CNC(=O)c2ccc3nccn3c2)cc1 | – | 0.5 nM | 2.2 nM | – |
| O=C(NCc1ccc(S(=O)(=O)c2ccccn2)cc1)c1cc2ccncc2o1 [N-{[4-(pyridine-2-sulfonyl)phenyl]methyl}furo[2,3-c]pyridine-2-carboxamide] | 55.1 nM | 87 nM | – | – |
| Cc1ccnc(S(=O)(=O)c2ccc(CNC(=O)c3cc4ccncc4o3)cc2)c1 [N-{[4-(4-methylpyridine-2-sulfonyl)phenyl]methyl}furo[2,3-c]pyridine-2-carboxamide] | 19.2 nM | 11.4 nM | – | – |
| CC(C)COc1ccc(S(=O)(=O)c2ccc(CNC(=O)c3ccc4nccn4c3)cc2)cc1 | 2.2 nM | 2.7 nM | – | – |
